Experimental data from article PMC8308508, “Hydralazine and Panobinostat Attenuate Malignant Properties of Prostate Cancer Cell Lines” (Pharmaceuticals, 2021).
Counter-ions that a name gives are not always drawn. Like-named read-outs stand apart in the source and are kept apart here.

Legend:
22Rv1 = assay: Cell viability assay (resazurin), dose-response; type: cell-based; conditions: Homo sapiens, 22Rv1, 72 h, 22Rv1, day 3, resazurin
Experimental: (§1) Briefly, PCa cell lines were seeded into 96-well plates at 5000 cells per well and incubated overnight at 37 °C in 5% CO2. Subsequently, cells were treated with a range of concentrations of each epidrug and their respective vehicle (dH2O for hydralazine; dimethyl sulfoxide (DMSO, Sigma-Aldrich, St. Louis, MO, USA) for panobinostat and culture medium for valproic acid) during three consecutive days, exchanging the medium every 24 h. Three experimental replicates of three biological replicates were used for each assay.
(§2) The cell viability was evaluated using resazurin (Canvax Biotech, Córdoba, Spain) at 0 h and 72 h of treatment. The culture medium was removed, and cells were incubated for three hours in the dark at 37 °C and 5% CO2 with 100 μL of 1:10 resazurin solution in culture medium. […] The OD values were corrected using resazurin solution as blank.

DU145 [1] = assay: Cell viability assay (resazurin), dose-response; type: cell-based; conditions: Homo sapiens, DU-145, 72 h, DU145, day 3, resazurin
Experimental: as §1, §2

LNCaP [2] = assay: Cell viability assay (resazurin), dose-response; type: cell-based; conditions: Homo sapiens, 72 h, day 3, resazurin
Experimental: as §1, §2

PC-3 [3] = assay: Cell viability assay (resazurin), dose-response; type: cell-based; conditions: Homo sapiens, 72 h; PC-3, day 3, resazurin
Experimental: as §1, §2

DU145 [4] = assay: Synergy assay, 6 × 6 checkerboard, growth inhibition by resazurin, CI by CompuSyn; type: cell-based; conditions: Homo sapiens, DU-145, 72 h, three days
Experimental: Each plate contained 6 × 6 dose matrix blocks with several epidrug concentrations below and above each respective EC50 value. […] The combination index (CI) was calculated using CompuSyn software, where <1 indicates synergism, =1 is an additive effect and >1 indicates antagonism.

DU145 [5] = assay: Alkaline comet assay; type: cell-based, Human
Experimental: After epidrug exposure, 30,000 cells were harvested by trypsinization, washed in PBS, re-suspended in 0.5% low-melting point agarose (w/v) and immediately placed on a microscope slide previously covered with 1% normal-melting point agarose (w/v). Then, the cells were immersed in lysis solution (2.5 M NaCl, 100 mM Na2EDTA, 10 mM Tris Base and 1% Triton X-100, pH 10) at 4 °C during 2 h in the dark. Afterwards, the slides were incubated in an alkaline electrophoresis buffer (300 mM NaOH, 1 mM Na2EDTA, pH 13) for 40 min at 4 °C to allow DNA unwinding. Single cell gel electrophoresis was performed on a horizontal electrophoresis platform for 30 min at 21 V, 300 mA, 4 °C. Next, slides were incubated in a neutralization buffer (0.4 M Tris-Base, pH 7.5) for 10 min, followed by staining with DAPI. Comet analysis was done using OpenComet v.1.3.1. Global DNA damage (SSB and DSB) evaluation was determined by measuring tail moment (tail % DNA × means of head × tail distance) and representative pictures taken with Olympus IX51 microscope at 200 × magnification (scale bar 50 μm). A sampling of at least 50 comets was included in the analysis. Three biological replicates were used for each condition.

DU145 [6] = assay: Proliferation assay (BrdU ELISA); type: cell-based, Human; conditions: day 3, Hydra 50 µM, Pano 5 nM, alone or combined, compared with the vehicle
Experimental: The cell proliferation ELISA BrdU (5-bromo-2′ deoxyuridine) assay (Roche Applied Sciences, Germany) was performed at 72 h of treatment. Cells were plated into 96-well plates at a density of 5000 cells per well, and at 0 h and 72 h of treatment, cells were incubated with 10 µM BrdU labeling solution for 8 h. After removing the culture medium, the cells were fixed with FixDenat solution for 30 min at room temperature. Then, the anti-BrdU-POD antibody (1:100) was added. After three washes with PBS 1 ×, the immune complexes were detected by the subsequent substrate reaction. The reaction product was quantified in a microplate reader (FLUOstar Omega, BMG Labtech, Ortenberg, Germany) at a wavelength of 450 nm with background subtraction at 690 nm. All ODs were normalized for the 0 h time point as well as to the vehicle. Three biological and three experimental replicates were used for each condition.

DU145 [7] = conditions: 3 days exposure, 7 additional days, Hydra 50 µM, Pano 5 nM
Experimental: (§3) PCa cells were seeded in 6-well culture plates at specific concentrations for each cell line, as detailed in Table S1. After epidrug exposure, cells were incubated at 37 °C and 5% CO2 for 7 days and 10 days (LNCaP). Next, colonies were fixed in methanol (Supelco, Sigma-Aldrich, St. Louis, MO, USA), washed in PBS 1 × and stained with Hemacolor Solution II and III (Sigma-Aldrich, St. Louis, MO, USA). Three biological and three experimental replicates were used for each condition.

DU145 [8] = assay: Invasion transwell assay; type: cell-based, Human; conditions: 24 h after seeding, Hydra 50 µM, Pano 5 nM, differences not statistically significant
Experimental: (§4) Cell invasion and migration were determined using Falcon® Permeable Support for 24-well Plate with 8.0 µm Transparent PET Membrane (Corning, New York, NY, USA) and Nunc® Cell Culture Inserts in 24-well Nunclon Delta surface plate (Sigma-Aldrich, St. Louis, MO, USA), respectively. Briefly, cells were harvested after treatment and were added to the upper chamber in serum-free medium, according to its optimized density (2.5 × 10^4 cells for every cell line except from LNCaP and 22Rv1 with 5 × 10^4 cells). Media containing 10% FBS was added to the lower chamber. After 24 h incubation at 37 °C and 5% CO2, the cells remaining on the upper side of the membrane were removed with cotton swabs, and those on the lower surface of the membrane were fixed in methanol (Supelco, Sigma-Aldrich, St. Louis, MO, USA), washed in PBS 1 × and stained with Crystal Violet (Active motif, Carlsbad, CA, USA). All the inserts were photographed with stereomicroscope Olympus S2X16 using a digital camera Olympus SC180 (scale bar 1 mm) at 12.5 × magnification. Five fields within each insert were selected and photographed at 115 × and further counted using ImageJ software Cell Counter Plugin. The mean of the counted cells was calculated, divided by the area of the microscope viewing field and then multiplied by the entire area of the insert. Three biological replicates were used for each condition.

PC-3 [9] = conditions: 24 h after seeding, Hydra 100 µM, Pano 10 nM, differences not statistically significant
Experimental: as §4

DU145 [10] = assay: Migration transwell assay; type: cell-based, Human; conditions: 24 h, Hydra 50 µM, Pano 5 nM, no significant differences
Experimental: as §4

[11] = Clinical bioavailability and corresponding concentration at maximum clinical dose; type: in vivo; conditions: 200 mg/day
[12] = cited from earlier work
WPMY-1 = assay: Cell viability assay (resazurin), dose-response; type: cell-based; conditions: Homo sapiens, WPMY-1, 72 h, WPMY-1, day 3, resazurin
Experimental: as §1, §2

RWPE-1 [13] = assay: Alkaline comet assay; type: cell-based, Human; conditions: Pano 10 nM
Source text: Three biological replicates were used for each condition.

PC-3 [14] = assay: Colony formation assay; type: cell-based, Human; conditions: 3 days exposure, 7 additional days, Hydra 100 µM, Pano 10 nM
Experimental: as §3

LNCaP [15] = assay: Colony formation assay; type: cell-based, Human; conditions: 3 days exposure, 10 additional days, Hydra 100 µM, Pano 5 nM
RWPE-1 [16] = assay: Cell viability assay (resazurin), dose-response; type: cell-based; conditions: Homo sapiens, RWPE-1, 72 h, RWPE-1, day 3, resazurin
Experimental: as §1, with “assay. The cell viability was evaluated using resazurin ([…] Biotech, Córdoba, Spain) at 0 h and 72 h of treatment. The culture medium was removed, and cells were incubated for three hours in the dark at 37 °C and 5% CO2 with 100 μL of 1:10 resazurin solution in culture medium. […] The OD values were corrected using resazurin solution as blank.” for “assay.”

Structure (SMILES): NNc1nncc2ccccc12 [Hydralazine, Hydralazine hydrochloride]
- EC50 (22Rv1): 73.1 µM
- EC50 (DU145 [1]): 50 µM
- EC50 (LNCaP [2]): 87.5 µM
- EC50 (PC-3 [3]): 143 µM
- inhibition at 50 µM (DU145 [4]; hydralazine alone at the selected concentration (50 µM, Table 1)): 42.8%
- DNA damage (tail moment, comet assay) (DU145 [5]): increased DNA damage
- cell proliferation (BrdU incorporation) (DU145 [6]): considerable proliferation inhibition
- colony formation (clonogenic capacity) (DU145 [7]): almost no colonies were apparent
- cell invasion (transwell) (DU145 [8]): reduced invasion
- cell invasion (transwell) (PC-3 [9]): two times higher than that of panobinostat
- cell migration (transwell) (DU145 [10]): reduced cell migration
- concentration corresponding to the maximum clinically recommended dose ([11]; bioavailability 16%, fast acetylators): ~0.2 M
- concentration corresponding to the maximum clinically recommended dose ([11]; bioavailability 35%, slow acetylators): ~0.44 M
- bioavailability ([12]; fast acetylators): 16%
- bioavailability ([12]; slow acetylators): 35%

Structure (SMILES): Cc1[nH]c2ccccc2c1CCNCc1ccc(/C=C/C(=O)NO)cc1 [Panobinostat]
- EC50 (22Rv1): 0.014 µM
- EC50 (DU145 [1]): 0.00697 µM
- EC50 (LNCaP [2]): 0.0247 µM
- EC50 (PC-3 [3]): 0.0289 µM
- EC50 (WPMY-1): 2.41e-05 mM
- inhibition at 0.005 µM (DU145 [4]; panobinostat alone at the selected concentration (5 nM, Table 1)): 48.9%
- DNA damage (tail moment, comet assay) (DU145 [5]; DU145, Hydra 50 µM, Pano 5 nM, alone or combined): increased DNA damage
- tail moment (comet assay) (RWPE-1 [13]): significantly increased
- cell proliferation (BrdU incorporation) (DU145 [6]): but not panobinostat, led to considerable proliferation inhibition
- colony formation (PC-3 [14]): showed a higher impact
- colony formation (LNCaP [15]): showed a higher impact
- cell invasion (transwell) (DU145 [8]): but not panobinostat, also reduced invasion
- bioavailability [12]: 21.4%

Structure (SMILES): CCCC(CCC)C(=O)O [Valproic acid]
- EC50 (22Rv1): 2000 to 3000 µM
- EC50 (DU145 [1]): 2000 to 3000 µM
- EC50 (LNCaP [2]): 2000 to 3000 µM
- EC50 (PC-3 [3]): 8540 µM
- EC50 (WPMY-1): 4.46 mM
- EC50 (RWPE-1 [16]): 8.97 mM
